Laboratory results: patent publication US9056108B2, “Method of treating atrial fibrillation” (Gilead Sciences, Inc., priority 2009, dated 2015)

What was measured:
[1] = tested on: ACh-mediated persistent AF in isolated canine coronary-perfused right atria; assay: Acetylcholine (ACh)-mediated persistent AF model in coronary-perfused right atria; settings: for Termination Persistent AF: ACh 1 μM-mediated persistent AF; for Prevention of AF re-induction: after termination of ACh-mediated AF; for Reduction/suppression of persistent AF: canine perfused right atrial preparations; for Induction of Persistent AF: in presence of ACh 1 μM
Description: To assess the anti-AF potential of ranolazine, dronedarone, and their combination, we used an acetylcholine (ACh, 1.0 μM)-mediated AF model. In the presence of ACh, premature electrical stimulation (PES) or rapid pacing (CL=50-80 ms) induces persistent AF in 100% of canine coronary-perfused right atrial preparations.^9 The effect of the drugs was assessed to prevent (series 1) the induction of AF. In a separate set of preparations, the ability of these agents was evaluated to terminate (series 2) persistent AF. In the first series, ACh was added to the perfusate 20-30 min after the start of perfusion with 5 μM ranolazine, 10 μM dronedarone, or the combination of these agents. This was followed by attempts to induce the arrhythmia electrically. In the second series, the agents were added to the perfusate during ACh-mediated persistent AF (on the 5-6th minutes after the start of the arrhythmia). In cases in which the drug terminated AF, we attempted to re-induce the arrhythmia with rapid pacing.

[2] = tested on: canine pulmonary vein (PV) sleeve preparations; assay: Superfused pulmonary vein (PV) sleeve preparations; settings: ranolazine 5 μM; for Reduction in Vmax following change of rate: CL 5000 to 300 ms, dronedarone 10 μM (control 13%); for Diastolic threshold of excitation (DTE): CL of 300 ms, from 0.21±0.07; for Diastolic threshold of excitation (DTE) / Shortest pacing CL permitting a 1:1 response: dronedarone 10 μM; for Shortest pacing CL permitting a 1:1 response: untreated controls 116±8
Description: Pulmonary vein (PV) sleeve preparations (approximately 2.0×1.5 cm) were isolated from left canine atria. The thickness of the preparation was approximately 2 mm. […] The preparations were placed in a small tissue bath and superfused with Tyrode's solution of the following composition (mM): 129 NaCl, 4 KCl, 0.9 NaH2PO4, 20 NaHCO3, 1.8 CaCl2, 0.5 MgSO4, 5.5 glucose, buffered with 95% O2/5% CO2 (35±0.5° C.). The PV preparations were stimulated at a basic cycle length (BCL) of 1000 ms during the equilibration period (1 h) using electrical pulses (1-3 ms duration, 2.5 times diastolic threshold intensity) delivered through silver bipolar electrodes insulated except at the tips. Transmembrane potentials were recorded (at a sampling rate of 40 kHz) using glass microelectrodes filled with 3 M KCl (10-20 MΩ DC resistance) connected to a high input-impedance amplification system (World Precision Instruments, model KS-700, New Haven, Conn.). The following parameters were measured: DTE, Vmax, and shortest S1-S1 permitting 1:1 activation. Acetylcholine (ACh, 1 μM), isoproterenol (1 μM), high calcium or their combination were used to induce late phase 3 EADs, DADs and triggered activity.

[3] = tested on: isolated canine coronary-perfused right atria; assay: Electrophysiology in isolated coronary-perfused canine right atrial preparations; settings: for Shortest S1-S1 (shortest CL permitting 1:1 activation) / APD90 / ERP: ranolazine 5 μM, dronedarone 10 μM; for APD90 / ERP: pectinate muscle, CL of 500 ms
Description: Experiments were performed using isolated coronary-perfused canine right atrial (RA) and left ventricular (LV) preparations (≈3×1.5×1 cm). Isolation and perfusion of the preparations were as previously described.^9, 15, 16 Briefly, preparations were dissected from hearts removed from anesthetized (sodium pentobarbital) adult mongrel dogs (20-30 kg). Unfolded RA with attached rim of the right ventricle was cannulated and perfused with cold cardioplegic solution (4-8° C.) through the ostium of the right coronary artery; the LV wedge was perfused through a diagonal branch of the left anterior descending coronary artery. Unperfused tissue was removed with a razor blade. Cut ventricular and atrial branches were ligated using silk thread. The preparations were then transferred to a temperature-controlled bath and arterially-perfused with Tyrode's solution by use of a roller pump. The composition of the Tyrode's solution was (in mM): NaCl 129, KCl 4, NaH2PO4 0.9, NaHCO3 20, CaCl2 1.8, MgSO4 0.5, and D-glucose 5.5, buffered with 95% O2 and 5% CO2 (37±0.5° C., pH=7.35)
Transmembrane action potential (AP) recordings were obtained using floating glass microelectrodes at a sampling rate of 40 kHz. A pseudo-electrocardiogram (ECG) was recorded using two electrodes consisting of Ag/AgCl half cells placed in the Tyrode's solution bathing the preparation, 1.0 to 1.5 cm from the two opposite sides of the atrial or ventricular coronary-perfused preparations. Conduction time was approximated by the duration of “P wave” in atria and “QRS complex” in ventricles, at a level representing 10% of “P wave” and “QRS” amplitude. Diastolic threshold of excitation (DTE) was determined by increasing stimulus intensity in 0.01 mA steps. Effective refractory period (ERP) was measured by delivering premature stimuli at progressively shorter S1-S2 intervals after every 10 basic beats at a pacing cycle length (CL) of 500 ms (5 ms steps; 2 times DTE). Post-repolarization refractoriness (PRR) was recognized when ERP exceeded action potential duration measured at 90% repolarization (APD90) in the ventricle and APD measured at 70% repolarization (APD70) in atria. Ventricular ERP was coincident with APD90, whereas atrial ERP was generally coincident with APD70-75.^9 The shortest S1-S1 permitting 1:1 activation was measured by progressively shortening pacing CL starting from a CL of 500 ms.
Stable AP recordings could not be readily obtained in the vigorously contracting perfused preparations. The largest recorded maximum rate of rise of the AP upstroke (Vmax) values per experimental condition were taken for statistical comparison. Only APs having amplitudes of at least 100 mV were considered in the analysis. The largest Vmax criterion was used because this was associated with the largest amplitude and the most negative resting membrane potential, depicting full or near full impalement. In determining use-dependent depression of Vmax, values were normalized to the Vmax value at a CL of 500 ms for each experiment and then averaged.
Because of their dependence on peak INa, Vmax, DTE, PRR, and conduction time as well the shortest S1-S1 interval permitting 1:1 activation are referred to as INa-dependent parameters.
The equilibration period for the coronary-perfused preparations was 30-120 min. The preparations were exposed to 5 μM ranolazine, 10 μM dronedarone (after 30 min washout of ranolazine), and the combination of these agents for at a period of at least 20 min. In time-control experiments, 20 minutes was sufficient to achieve steady-state in the effects of each of the drugs to alter electrophysiologic parameters. Recordings were obtained at a cycle length (CL) of 500 and 300 ms, unless otherwise indicated. […] When determining the shortest S1-S1 pacing rate permitting 1:1 activation, the stimulation intensity was DTE x 2, determined at a CL of 500 ms.

[4] = tested on: ACh-mediated persistent AF in isolated canine coronary-perfused right atria; assay: Acetylcholine (ACh)-mediated persistent AF model in coronary-perfused right atria; settings: ranolazine 5 μM, dronedarone 10 μM; without ACh
[5] = ranolazine 5 μM, dronedarone 10 μM
[6] = 2x threshold stimulus intensity, without ACh, in ms (unit assumed)

Compound | Termination Persistent AF [1, 5] [%] | Prevention of AF re-induction [1, 5] [%] | Reduction/suppression of persistent AF [1] [%] | Induction of Persistent AF [1, 5] [%] | Prevention of induction of sustained/persistent AF (atria) ([1]; pretreatment, then ACh 1 μM, ranolazine 5 μM, dronedarone 10 μM) | Reduction in Vmax following change of rate [2] [%] | Diastolic threshold of excitation (DTE) [2] [mA] | Shortest pacing CL permitting a 1:1 response [2] [ms] | Shortest S1-S1 (shortest CL permitting 1:1 activation) [3, 6] | Shortest S1-S1 (shortest CL permitting 1:1 activation) ([3]; in presence of ACh 1 μM) | APD90 ([3]; in presence of ACh 1 μM) [ms] | ERP ([3]; in presence of ACh 1 μM) [ms] | APD90 ([3]; without ACh) [ms] | ERP ([3]; without ACh) [ms] | Induction of Persistent AF [4] [%] | Prolongation of atrial ERP ([3]; current in vitro investigation) [%]
COc1ccccc1OCC(O)CN1CCN(CC(=O)Nc2c(C)cccc2C)CC1 (racemic) [Ranolazine, (±)-N-(2,6-dimethylphenyl)-4-[2-hydroxy-3-(2-methoxyphenoxy)-propyl]-1-piperazineacetamide] | 20 | 100 | 29 | 71 | 2/7 | 19 | 0.24±0.09 | 121 ± 13 | 201 ± 22 | 94 ± 11 | 52 ± 6 | 72 ± 13 | 210 ± 10 | 181 ± 11 | 0 | 
CCCCc1oc2ccc(NS(C)(=O)=O)cc2c1C(=O)c1ccc(OCCCN(CCCC)CCCC)cc1 [Dronedarone, N-(2-Butyl-3-(p-(3-(dibutylamino)propoxy)benzoyl)-5-benzofuranyl)methanesulfonamide] | 17 | 0 | 17 | 83 |  | 20 | 0.26±0.09 | 120 ± 12 | 147 ± 11 | 88 ± 13 | 45 ± 5 | 59 ± 7 | 202 ± 9 | 171 ± 11 | 0 | 9
